Inconclusive results and toxic doses are left out. The calls were made as follows: active = survival T/C of 150% or more; inactive = T/C below 125% in these data.
System: BDF1 mice, P388 leukemia ip, median survival T/C
Assay: NCI In Vivo Anticancer Drug Screen. Data for tumor model P388 Leukemia (intraperitoneal) in B6D2F1 (BDF1) mice
Conditions: endpoint: median survival time, higher = longer survival
Summary of the method: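 Antitumour effect was judged in vivo: survival in drug-treated mice, normalised to that of vehicle-dosed controls, gives the reported T/C.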

[1] = dose: 100.0 mg/kg/injection, schedule: Q01DX009 (ip), vehicle: Klucel (hydroxypropylcellulose) (HPC)
[2] = dose: 50.0 mg/kg/injection, schedule: Q01DX009 (ip), vehicle: saline with Tween-80
[3] = dose: 100.0 mg/kg/injection, schedule: Q01DX009 (ip), vehicle: saline with Tween-80

Measured: T/C

CCn1cnc2c(SC)nc(N)nc21
inactive: dose: 25.0 mg/kg/injection, schedule: Q01DX009 (ip), vehicle: Klucel (hydroxypropylcellulose) (HPC) 110 % of control | dose: 50.0 mg/kg/injection, schedule: Q01DX009 (ip), vehicle: Klucel (hydroxypropylcellulose) (HPC) 105 % of control | dose: 50.0 mg/kg/injection, schedule: Q04DX003 (ip), vehicle: alcohol 100 % of control | dose: 75.0 mg/kg/injection, schedule: Q04DX003 (ip), vehicle: Klucel (hydroxypropylcellulose) (HPC) 104 % of control | [1] 100 % of control | dose: 100.0 mg/kg/injection, schedule: Q04DX003 (ip), vehicle: alcohol 100 % of control | dose: 150.0 mg/kg/injection, schedule: Q04DX003 (ip), vehicle: Klucel (hydroxypropylcellulose) (HPC) 100 % of control | dose: 200.0 mg/kg/injection, schedule: Q04DX003 (ip), vehicle: alcohol 100 % of control | dose: 300.0 mg/kg/injection, schedule: Q04DX003 (ip), vehicle: Klucel (hydroxypropylcellulose) (HPC) 109 % of control

S=P(Oc1ccccc1)(N1CC1)N1CC1
inactive: dose: 100.0 mg/kg/injection, schedule: Q01DX007 (ip), vehicle: DMSO 88 % of control | dose: 100.0 mg/kg/injection, schedule: Q04DX003 (ip), vehicle: Klucel (hydroxypropylcellulose) (HPC) 100 % of control | dose: 200.0 mg/kg/injection, schedule: Q04DX003 (ip), vehicle: Klucel (hydroxypropylcellulose) (HPC) 108 % of control | dose: 400.0 mg/kg/injection, schedule: Q04DX003 (ip), vehicle: Klucel (hydroxypropylcellulose) (HPC) 100 % of control

COc1c2c(cc3oc4ccccc4c(=O)c13)CCCC2
inactive: dose: 50.0 mg/kg/injection, schedule: Q01DX005 (ip), vehicle: saline with Tween-80 100 % of control | dose: 100.0 mg/kg/injection, schedule: Q01DX005 (ip), vehicle: saline with Tween-80 96 % of control | dose: 200.0 mg/kg/injection, schedule: Q01DX005 (ip), vehicle: saline with Tween-80 87 % of control

CCOc1cccc(/C=N/n2c(-c3ccccc3Cl)nc3ccccc3c2=O)c1O
inactive: [2] 90 % of control | [3] 87 % of control

Cc1cccc(NC2=C(C#N)C(=O)NC3(CCCC3)S2)c1
inactive: [2] 119 % of control | [3] 103 % of control | dose: 200.0 mg/kg/injection, schedule: Q01DX009 (ip), vehicle: saline with Tween-80 100 % of control

Cc1ccc(S(=O)(=O)OC2CCN(C)CC2)cc1
inactive: dose: 3.0 mg/kg/injection, schedule: Q04DX003 (ip), vehicle: saline 100 % of control | dose: 6.0 mg/kg/injection, schedule: Q04DX003 (ip), vehicle: saline 95 % of control | dose: 12.0 mg/kg/injection, schedule: Q04DX003 (ip), vehicle: saline 100 % of control | dose: 25.0 mg/kg/injection, schedule: Q04DX003 (ip), vehicle: saline 100 % of control

CC(CCCC1SCC2NC(=O)NC21)C(=O)O (stereo not drawn)
inactive: [1] 102 % of control | dose: 200.0 mg/kg/injection, schedule: Q01DX009 (ip), vehicle: Klucel (hydroxypropylcellulose) (HPC) 91 % of control | dose: 400.0 mg/kg/injection, schedule: Q01DX009 (ip), vehicle: Klucel (hydroxypropylcellulose) (HPC) 98 % of control
